From ChEMBL document CHEMBL4725300, “Structure optimization of positive allosteric modulators of GABA receptors led to the unexpected discovery of antagonists/potential negative allosteric modulators” (Bioorg Med Chem Lett, 2020)

Columns and labels:
Format in all cases: cell membranes
Rattus norvegicus [1] = organism: Rattus norvegicus; test: Negative allosteric modulation of GABAB receptor in Sprague-Dawley rat brain cortex membrane assessed as decrease in [35S]GTPgammaS binding at 25 uM incubated for 30 mins relative to control; parameters: scale not given: the % may be the effect or the level left; conditions: Cerebral cortex, filed as negative allosteric modulator
Rattus norvegicus [2] = organism: Rattus norvegicus; test: Antagonist activity at GABAB receptor in Sprague-Dawley rat brain cortex membrane assessed as decrease in 10 uM GABA-stimulated [35S]GTPgammaS binding at 25 uM incubated for 30 mins relative to GABA; parameters: scale not given: the % may be the effect or the level left; conditions: Cerebral cortex, filed as antagonist
Rattus norvegicus [3] = organism: Rattus norvegicus; test: Antagonist activity at GABAB receptor in Sprague-Dawley rat brain cortex membrane assessed as decrease in 10 uM GABA-stimulated [35S]GTPgammaS binding at 2.5 uM incubated for 30 mins relative to GABA; parameters: scale not given: the % may be the effect or the level left; conditions: Cerebral cortex, filed as antagonist
Rattus norvegicus [4] = organism: Rattus norvegicus; test: Negative allosteric modulation of GABAB receptor in Sprague-Dawley rat brain cortex membrane assessed as decrease in [35S]GTPgammaS binding at 2.5 uM incubated for 30 mins relative to control; parameters: scale not given: the % may be the effect or the level left; conditions: Cerebral cortex, filed as negative allosteric modulator
Rattus norvegicus [5] = organism: Rattus norvegicus; test: Negative allosteric modulation of GABAB receptor in Sprague-Dawley rat brain cortex membrane assessed as decrease in [35S]GTPgammaS binding for 30 mins; conditions: Cerebral cortex, filed as negative allosteric modulator
Rattus norvegicus [6] = organism: Rattus norvegicus; test: Antagonist activity at GABAB receptor in Sprague-Dawley rat brain cortex membrane assessed as decrease in 10 uM GABA-stimulated [35S]GTPgammaS binding incubated for 30 mins; conditions: Cerebral cortex, filed as antagonist
Rattus norvegicus [7] = organism: Rattus norvegicus; test: Agonist activity at GABAB receptor in Sprague-Dawley rat brain cortex membrane assessed as decrease in 10 uM GABA-stimulated [35S]GTPgammaS binding at 25 uM incubated for 30 mins; parameters: scale not given: the % may be the effect or the level left; conditions: Cerebral cortex, filed as agonist
Rattus norvegicus [8] = organism: Rattus norvegicus; test: Agonist activity at GABAB receptor in Sprague-Dawley rat brain cortex membrane assessed as decrease in 10 uM GABA-stimulated [35S]GTPgammaS binding at 2.5 uM incubated for 30 mins; parameters: scale not given: the % may be the effect or the level left; conditions: Cerebral cortex, filed as agonist

Compound `O=c1cc(O)nc(-c2ccccc2)n1Cc1ccccc1` has an Activity (Rattus norvegicus [1]) of 14%, an Activity (Rattus norvegicus [2]) of 12.4% and an Activity (Rattus norvegicus [3]) of 0.9%. For the same compound, the Activity (Rattus norvegicus [4]) was 2.4%.
For `CC(C)Cn1c(=O)c(C(C)C)c(O)c2cc(C(C)C)ccc21`, the Activity (Rattus norvegicus [1]) was 41.5%, the Activity (Rattus norvegicus [5]) was “Dose-dependent effect” and the Activity (Rattus norvegicus [2]) was 41.5%. For the same compound, the Activity (Rattus norvegicus [3]) was 13.5%, the Activity (Rattus norvegicus [6]) was “Dose-dependent effect” and the Activity (Rattus norvegicus [4]) was 8.7%.
`CC(C)Cn1c(=O)c(C(C)C)c(O)c2cc(C(C)(C)C)ccc21` was tested, and the Activity (Rattus norvegicus [1]) was 50.7%, the Activity (Rattus norvegicus [5]) was “Dose-dependent effect” and the Activity (Rattus norvegicus [2]) was 36.2%. For the same compound, the Activity (Rattus norvegicus [3]) was 15.3%, the Activity (Rattus norvegicus [6]) was “Dose-dependent effect” and the Activity (Rattus norvegicus [4]) was 23%.
With `CSc1ncc(-c2nc(C)no2)c(NC2CCCC2)n1` the Activity (Rattus norvegicus [1]) was 33.3%, the Activity (Rattus norvegicus [5]) was “Dose-dependent effect” and the Activity (Rattus norvegicus [2]) was 19%. The Activity (Rattus norvegicus [3]) was 10.3%, the Activity (Rattus norvegicus [6]) was “Dose-dependent effect” and the Activity (Rattus norvegicus [4]) was 19%.
For `O=c1cc(-c2ccccc2)nc(Sc2ccccc2)[nH]1`, the Activity (Rattus norvegicus [1]) was 7.3%, the Activity (Rattus norvegicus [5]) was “Dose-dependent effect” and the Activity (Rattus norvegicus [2]) was 6.1%. It also gave an Activity (Rattus norvegicus [3]) of 4.7% and an Activity (Rattus norvegicus [4]) of 3.3%.
In the case of `Cn1c(Sc2ccc(Cl)cc2)nc(-c2ccccc2)cc1=O`, the Activity (Rattus norvegicus [1]) is reported as 34.7%, the Activity (Rattus norvegicus [5]) is reported as “Dose-dependent effect” and the Activity (Rattus norvegicus [2]) is reported as 34.1%. The Activity (Rattus norvegicus [3]) was 10.9%, the Activity (Rattus norvegicus [6]) was “Dose-dependent effect” and the Activity (Rattus norvegicus [4]) was 12.2%.
For `CCOC(=O)c1cnc(SC)nc1NC1CCCC1`, the Activity (Rattus norvegicus [1]) was 29.3%, the Activity (Rattus norvegicus [5]) was “Dose-dependent effect” and the Activity (Rattus norvegicus [2]) was 5.7%. For the same compound, the Activity (Rattus norvegicus [3]) was 10.3% and the Activity (Rattus norvegicus [4]) was 25%.
With `Cc1c(O)c2cc(C(C)(C)C)ccc2n(CC(C)C)c1=O` the Activity (Rattus norvegicus [1]) was 32.5%, the Activity (Rattus norvegicus [5]) was “Dose-dependent effect” and the Activity (Rattus norvegicus [2]) was 23.6%. For the same compound, the Activity (Rattus norvegicus [3]) was 8.4%, the Activity (Rattus norvegicus [6]) was “Dose-dependent effect” and the Activity (Rattus norvegicus [4]) was 13.5%.
In the case of `Cn1c(Sc2ccc(Cl)cc2)nc(-c2ccc(C(C)(C)C)cc2)cc1=O`, the Activity (Rattus norvegicus [1]) is reported as 9.7%, the Activity (Rattus norvegicus [5]) is reported as “Dose-dependent effect” and the Activity (Rattus norvegicus [2]) is reported as 3.1%. For the same compound, the Activity (Rattus norvegicus [3]) was 8.2% and the Activity (Rattus norvegicus [4]) was 4%.
`CSc1ncc(-c2nnc(C)o2)c(NC2CCCC2)n1` was tested, and the Activity (Rattus norvegicus [1]) was 37.7%, the Activity (Rattus norvegicus [5]) was “Dose-dependent effect” and the Activity (Rattus norvegicus [2]) was 19%. It also gave an Activity (Rattus norvegicus [3]) of 17.1% and an Activity (Rattus norvegicus [4]) of 25.3%.
With `CC(C)c1ccc2c(c1)c(O)c(C(C)C)c(=O)n2CC(C)(C)C` the Activity (Rattus norvegicus [1]) was 13.8%, the Activity (Rattus norvegicus [5]) was “Dose-dependent effect” and the Activity (Rattus norvegicus [3]) was 2%. For the same compound, the Activity (Rattus norvegicus [7]) was 2.6% and the Activity (Rattus norvegicus [4]) was 3.2%.
`CCCn1c(=O)c(C)c(O)c2cc(OC)ccc21` was tested, and the Activity (Rattus norvegicus [1]) was 10.5%, the Activity (Rattus norvegicus [5]) was “Dose-dependent effect” and the Activity (Rattus norvegicus [2]) was 7.4%. For the same compound, the Activity (Rattus norvegicus [3]) was 4.3% and the Activity (Rattus norvegicus [4]) was 5%.
`CC(C)c1c(O)c2cc(C(C)(C)C)ccc2n(CC(C)(C)C)c1=O` was tested, and the Activity (Rattus norvegicus [1]) was 22.7%, the Activity (Rattus norvegicus [5]) was “Dose-dependent effect” and the Activity (Rattus norvegicus [2]) was 6.3%. It also gave an Activity (Rattus norvegicus [8]) of 1.7% and an Activity (Rattus norvegicus [4]) of 2%.
`CC(C)c1c(O)nc(-c2ccccc2)n(Cc2ccccc2)c1=O` gave an Activity (Rattus norvegicus [1]) of 13%, an Activity (Rattus norvegicus [2]) of 8% and an Activity (Rattus norvegicus [3]) of 5.2%. The Activity (Rattus norvegicus [4]) was 2.3%.
For `O=c1cc(-c2ccccc2)nc(Sc2ccc(Cl)cc2)[nH]1`, the Activity (Rattus norvegicus [1]) was 14.7%, the Activity (Rattus norvegicus [5]) was “Dose-dependent effect” and the Activity (Rattus norvegicus [2]) was 7.4%. It also gave an Activity (Rattus norvegicus [3]) of 4.9% and an Activity (Rattus norvegicus [4]) of 8.7%.
Work on `Cc1c(O)nc(-c2ccccc2)n(Cc2ccccc2)c1=O` yielded an Activity (Rattus norvegicus [1]) of 8.3%, an Activity (Rattus norvegicus [2]) of 6.2% and an Activity (Rattus norvegicus [3]) of 5.7%. It also gave an Activity (Rattus norvegicus [4]) of 3.3%.
In the case of `Cn1c(Sc2ccccc2)nc(-c2ccccc2)cc1=O`, the Activity (Rattus norvegicus [1]) is reported as 9.7%, the Activity (Rattus norvegicus [5]) is reported as “Dose-dependent effect” and the Activity (Rattus norvegicus [2]) is reported as 4.7%. The Activity (Rattus norvegicus [3]) was 1.6% and the Activity (Rattus norvegicus [4]) was 4.7%.
In the case of `CCOC(=O)c1cnc(-n2nc(C)cc2C)nc1NC1CCCC1`, the Activity (Rattus norvegicus [1]) is reported as 44.7%, the Activity (Rattus norvegicus [5]) is reported as “Dose-dependent effect” and the Activity (Rattus norvegicus [2]) is reported as 40.8%. For the same compound, the Activity (Rattus norvegicus [3]) was 14.4%, the Activity (Rattus norvegicus [6]) was “Dose-dependent effect” and the Activity (Rattus norvegicus [4]) was 18.3%.
`CCCCCn1c(=O)c(C(C)C)c(O)c2cc(C(C)C)ccc21` was tested, and the Activity (Rattus norvegicus [1]) was 37.7%, the Activity (Rattus norvegicus [5]) was “Dose-dependent effect” and the Activity (Rattus norvegicus [2]) was 24.4%. For the same compound, the Activity (Rattus norvegicus [3]) was 7%, the Activity (Rattus norvegicus [6]) was “Dose-dependent effect” and the Activity (Rattus norvegicus [4]) was 9%.
